What all share (assay): Glasshouse assay for herbicidal activity (pre- and post-emergence), percentage phytotoxicity
Holding throughout (assay type): in vivo

Test [1] deals with Alopecurus myosuroides (ALOMY). The conditions noted are these: Alopecurus myosuroides. The method in brief: (§1)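 Visually rated damage, 0–100%. PRE spray 1 d after sowing, scored 20 DAA; POST spray ~12 d, scored 15 DAA. Glasshouse at 65% humidity, 16 h day.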
The next test relates to Lolium perenne (LOLPE). The conditions noted are these: Lolium perenne. Put shortly: as §1
Another test deals with Avena fatua (AVEFA). The conditions noted are these: Avena fatua. The method in brief: as §1
Test [2] relates to Echinochloa crus-galli (ECHCG). The conditions noted are these: Echinochloa crus-galli. The method in brief: as §1
Setting [3] is: post-emergence, 360 h, Rate 250 g/ha, post-emergence, assessed visually 15 DAA, 100%=total damage, 0%=no damage, read-out: Post-emergence herbicidal activity (percentage phytotoxicity) ALOMY POST.
Setting [4] is: pre-emergence, 480 h, Rate 250 g/ha, pre-emergence, assessed visually 20 DAA, 100%=total damage, 0%=no damage, read-out: Pre-emergence herbicidal activity (percentage phytotoxicity) ALOMY PRE.
[5] abbreviates: post-emergence, 360 h, Rate 250 g/ha, post-emergence, assessed visually 15 DAA, 100%=total damage, 0%=no damage, read-out: Post-emergence herbicidal activity (percentage phytotoxicity) LOLPE POST.
Setting [6] is: pre-emergence, 480 h, Rate 250 g/ha, pre-emergence, assessed visually 20 DAA, 100%=total damage, 0%=no damage, read-out: Pre-emergence herbicidal activity (percentage phytotoxicity) LOLPE PRE.
[7] abbreviates: post-emergence, 360 h, Rate 250 g/ha, post-emergence, assessed visually 15 DAA, 100%=total damage, 0%=no damage, read-out: Post-emergence herbicidal activity (percentage phytotoxicity) AVEFA POST.
Where [8] appears, read: pre-emergence, 480 h, Rate 250 g/ha, pre-emergence, assessed visually 20 DAA, 100%=total damage, 0%=no damage, read-out: Pre-emergence herbicidal activity (percentage phytotoxicity) AVEFA PRE.
The mark [9] stands for this setting: post-emergence, 360 h, Rate 250 g/ha, post-emergence, assessed visually 15 DAA, 100%=total damage, 0%=no damage, read-out: Post-emergence herbicidal activity (percentage phytotoxicity) ECHCG POST.
[10] abbreviates: pre-emergence, 480 h, Rate 250 g/ha, pre-emergence, assessed visually 20 DAA, 100%=total damage, 0%=no damage, read-out: Pre-emergence herbicidal activity (percentage phytotoxicity) ECHCG PRE.
The mark [11] stands for this setting: post-emergence, 360 h, 250 g/ha, post-emergence, 15 DAA, visual assessment (100%=total damage, 0%=no damage), read-out: Post-emergence herbicidal activity (percentage phytotoxicity) ALOMY POST.
Setting [12] is: pre-emergence, 480 h, 250 g/ha, pre-emergence, 20 DAA, visual assessment (100%=total damage, 0%=no damage), read-out: Pre-emergence herbicidal activity (percentage phytotoxicity) ALOMY PRE.
Setting [13] is: post-emergence, 360 h, 250 g/ha, post-emergence, 15 DAA, visual assessment (100%=total damage, 0%=no damage), read-out: Post-emergence herbicidal activity (percentage phytotoxicity) LOLPE POST.
Where [14] appears, read: pre-emergence, 480 h, 250 g/ha, pre-emergence, 20 DAA, visual assessment (100%=total damage, 0%=no damage), read-out: Pre-emergence herbicidal activity (percentage phytotoxicity) LOLPE PRE.
The mark [15] stands for this setting: post-emergence, 360 h, 250 g/ha, post-emergence, 15 DAA, visual assessment (100%=total damage, 0%=no damage), read-out: Post-emergence herbicidal activity (percentage phytotoxicity) AVEFA POST.
Setting [16] is: pre-emergence, 480 h, 250 g/ha, pre-emergence, 20 DAA, visual assessment (100%=total damage, 0%=no damage), read-out: Pre-emergence herbicidal activity (percentage phytotoxicity) AVEFA PRE.
The mark [17] stands for this setting: post-emergence, 360 h, 250 g/ha, post-emergence, 15 DAA, visual assessment (100%=total damage, 0%=no damage), read-out: Post-emergence herbicidal activity (percentage phytotoxicity) ECHCG POST.
Setting [18] is: pre-emergence, 480 h, 250 g/ha, pre-emergence, 20 DAA, visual assessment (100%=total damage, 0%=no damage), read-out: Pre-emergence herbicidal activity (percentage phytotoxicity) ECHCG PRE.
Where [19] appears, read: post-emergence, 360 h, POST-emergence, rate 250 g/ha, visual score 15 DAA (100%=total damage, 0%=no damage), read-out: Post-emergence herbicidal activity (percentage phytotoxicity) ALOMY POST.
The mark [20] stands for this setting: pre-emergence, 480 h, PRE-emergence, rate 250 g/ha, visual score 20 DAA (100%=total damage, 0%=no damage), read-out: Pre-emergence herbicidal activity (percentage phytotoxicity) ALOMY PRE.
[21] abbreviates: post-emergence, 360 h, POST-emergence, rate 250 g/ha, visual score 15 DAA (100%=total damage, 0%=no damage), read-out: Post-emergence herbicidal activity (percentage phytotoxicity) LOLPE POST.
[22] abbreviates: pre-emergence, 480 h, PRE-emergence, rate 250 g/ha, visual score 20 DAA (100%=total damage, 0%=no damage), read-out: Pre-emergence herbicidal activity (percentage phytotoxicity) LOLPE PRE.
[23] abbreviates: post-emergence, 360 h, POST-emergence, rate 250 g/ha, visual score 15 DAA (100%=total damage, 0%=no damage), read-out: Post-emergence herbicidal activity (percentage phytotoxicity) AVEFA POST.
The mark [24] stands for this setting: pre-emergence, 480 h, PRE-emergence, rate 250 g/ha, visual score 20 DAA (100%=total damage, 0%=no damage), read-out: Pre-emergence herbicidal activity (percentage phytotoxicity) AVEFA PRE.
[25] abbreviates: post-emergence, 360 h, POST-emergence, rate 250 g/ha, visual score 15 DAA (100%=total damage, 0%=no damage), read-out: Post-emergence herbicidal activity (percentage phytotoxicity) ECHCG POST.
Where [26] appears, read: pre-emergence, 480 h, PRE-emergence, rate 250 g/ha, visual score 20 DAA (100%=total damage, 0%=no damage), read-out: Pre-emergence herbicidal activity (percentage phytotoxicity) ECHCG PRE.

SMILES strings stand for the structures. Read-outs that look alike come from different tables or passages of the source.

Take `Cc1cc(-c2ncc(F)cc2Cl)cc(C)c1C1C(=O)CC(CC(=O)NCc2cccs2)C1=O` (stereo not drawn) [Compound A150]: the pest or weed control at 250 g/ha is 70% in test [1] (setting [3]); 70% in test [1] (setting [4]); 70% in the test on Lolium perenne (LOLPE) (setting [5]); 80% in the test on Lolium perenne (LOLPE) (setting [6]); 90% in the test on Avena fatua (AVEFA) (setting [7]); 50% with Avena fatua (AVEFA) (setting [8]). The pest or weed control at 250 g/ha in test [2] (setting [9]) and in test [2] (setting [10]) was 90% in each case.
On to `Cc1cc(-c2ncc(F)cc2F)cc(C)c1C1C(=O)CC(CC(=O)NCc2ccc(Br)cc2)C1=O` (stereo not drawn) [Compound B100], for which the pest or weed control at 250 g/ha in test [1] (setting [11]) was 100%; in test [1] (setting [12]) it was 80%; in the test on Lolium perenne (LOLPE) (setting [13]), 100%; with Lolium perenne (LOLPE) (setting [14]) it was 90%; in the test with Avena fatua (AVEFA) (setting [15]), 100%; in the test with Avena fatua (AVEFA) (setting [16]), 60%. Besides, the pest or weed control at 250 g/ha in test [2] (setting [17]) and in test [2] (setting [18]) was 100% in each case.
In the case of `Cc1ccc(CNC(=O)CC2CC(=O)C(c3c(C)cc(C)cc3C)C2=O)nc1` (stereo not drawn) [Compound A23], the pest or weed control at 250 g/ha in test [1] (setting [3]) worked out at 80%; in test [1] (setting [4]), 80%; in the test on Lolium perenne (LOLPE) (setting [5]) it was 80%; with Lolium perenne (LOLPE) (setting [6]), 70%; in the test on Avena fatua (AVEFA) (setting [7]) it was 70%; in the test with Avena fatua (AVEFA) (setting [8]), 60%. Also, the pest or weed control at 250 g/ha in test [2] (setting [9]) stood at 90%; in test [2] (setting [10]), 100%.
With `Cc1cc(-c2ncc(Cl)cn2)cc(C)c1C1=C(OC(=O)N2CCCC2)CC(CC(=O)NC(C)(C)C)C1=O` (stereo not drawn) [Compound P8], the pest or weed control at 250 g/ha in test [1] (post-emergence, 360 h, Rate 250 g/ha, post-emergence, visual assessment 15 DAA, 100%=total damage, 0%=no damage, read-out: Post-emergence herbicidal activity (percentage phytotoxicity) ALOMY POST) turned out to be 70%; in test [1] (pre-emergence, 480 h, Rate 250 g/ha, pre-emergence, visual assessment 20 DAA, 100%=total damage, 0%=no damage, read-out: Pre-emergence herbicidal activity (percentage phytotoxicity) ALOMY PRE), 30%; in the test with Lolium perenne (LOLPE) (post-emergence, 360 h, Rate 250 g/ha, post-emergence, visual assessment 15 DAA, 100%=total damage, 0%=no damage, read-out: Post-emergence herbicidal activity (percentage phytotoxicity) LOLPE POST), 70%; in the test on Lolium perenne (LOLPE) (pre-emergence, 480 h, Rate 250 g/ha, pre-emergence, visual assessment 20 DAA, 100%=total damage, 0%=no damage, read-out: Pre-emergence herbicidal activity (percentage phytotoxicity) LOLPE PRE), 50%; in the test on Avena fatua (AVEFA) (post-emergence, 360 h, Rate 250 g/ha, post-emergence, visual assessment 15 DAA, 100%=total damage, 0%=no damage, read-out: Post-emergence herbicidal activity (percentage phytotoxicity) AVEFA POST), 80%; in the test on Avena fatua (AVEFA) (pre-emergence, 480 h, Rate 250 g/ha, pre-emergence, visual assessment 20 DAA, 100%=total damage, 0%=no damage, read-out: Pre-emergence herbicidal activity (percentage phytotoxicity) AVEFA PRE), 10%. Moreover, the pest or weed control at 250 g/ha was 90% in test [2] (post-emergence, 360 h, Rate 250 g/ha, post-emergence, visual assessment 15 DAA, 100%=total damage, 0%=no damage, read-out: Post-emergence herbicidal activity (percentage phytotoxicity) ECHCG POST) and 70% in test [2] (pre-emergence, 480 h, Rate 250 g/ha, pre-emergence, visual assessment 20 DAA, 100%=total damage, 0%=no damage, read-out: Pre-emergence herbicidal activity (percentage phytotoxicity) ECHCG PRE).
In the case of `CCc1cc(OCC(F)(F)F)cc(C)c1C1C(=O)CC(CC(=O)NC(C)C)C1=O` (stereo not drawn) [Compound B217], the pest or weed control at 250 g/ha (in test [1] (setting [19]); in test [1] (setting [20]); in the test with Lolium perenne (LOLPE) (setting [21]); in the test with Lolium perenne (LOLPE) (setting [22]); in the test with Avena fatua (AVEFA) (setting [23]); in the test with Avena fatua (AVEFA) (setting [24])) was 100% throughout. Further, the pest or weed control at 250 g/ha in test [2] (setting [25]) and in test [2] (setting [26]) was 100% in each case.
In the case of `C=CCNC(=O)CC1CC(=O)C(c2c(C)cc(-c3ncc(F)cn3)cc2C)C1=O` (stereo not drawn) [Compound B108], the pest or weed control at 250 g/ha in test [1] (setting [11]) was determined as 100%; in test [1] (setting [12]), 100%; in the test on Lolium perenne (LOLPE) (setting [13]), 100%; in the test with Lolium perenne (LOLPE) (setting [14]), 90%; in the test with Avena fatua (AVEFA) (setting [15]), 100%; in the test on Avena fatua (AVEFA) (setting [16]), 90%. The pest or weed control at 250 g/ha in test [2] (setting [17]) and in test [2] (setting [18]) was 100% in each case.
Turning to `C#CCNC(=O)CC1CC(=O)C(c2c(C)cc(C#CC)cc2CC)C1=O` (stereo not drawn) [Compound A68], the pest or weed control at 250 g/ha in test [1] (setting [3]) is 90%; in test [1] (setting [4]), 70%; in the test on Lolium perenne (LOLPE) (setting [5]) it was 100%; in the test on Lolium perenne (LOLPE) (setting [6]), 100%; in the test with Avena fatua (AVEFA) (setting [7]), 100%; with Avena fatua (AVEFA) (setting [8]) it was 100%. Besides, the pest or weed control at 250 g/ha in test [2] (setting [9]) and in test [2] (setting [10]) was 100% in each case.
On to `Cc1cc(-c2ncc(F)cc2F)cc(C)c1C1C(=O)CC(CC(N)=O)C1=O` (stereo not drawn) [Compound B54], for which the pest or weed control at 250 g/ha in test [1] (setting [11]) came out at 100%; in test [1] (setting [12]), 80%; in the test with Lolium perenne (LOLPE) (setting [13]), 100%; in the test on Lolium perenne (LOLPE) (setting [14]), 80%; with Avena fatua (AVEFA) (setting [15]), 100%; in the test with Avena fatua (AVEFA) (setting [16]), 80%. Moreover, the pest or weed control at 250 g/ha in test [2] (setting [17]) was 100%; in test [2] (setting [18]) it was 80%.
For `CCc1cc(C)cc(C)c1C1C(=O)CC(CC(=O)NCc2ccc(OC)cc2)C1=O` (stereo not drawn) [Compound B253], the pest or weed control at 250 g/ha in test [1] (setting [19]) came out at 100%; in test [1] (setting [20]), 100%; in the test with Lolium perenne (LOLPE) (setting [21]), 100%; in the test on Lolium perenne (LOLPE) (setting [22]), 90%; in the test on Avena fatua (AVEFA) (setting [23]), 100%; with Avena fatua (AVEFA) (setting [24]), 80%. In addition, the pest or weed control at 250 g/ha amounted to 100% in test [2] (setting [25]) and 90% in test [2] (setting [26]).
